We go through 5 molecules from ChEMBL document CHEMBL1201862, “PubChem BioAssay data set” (2004).

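Following 48 hours of exposure in 96-well plates, responses at five concentrations were used to interpolate endpoints linearly. GI50 = concentration required for 50% inhibition of growth.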 Calls of active or inactive are those of the source. Cut-off read from the data, not from the text of the source: active = GI50 up to about 1.1 µM and inactive = higher.

Experiment in all cases: growth of human tumour cells (NCI), 48 h
Experiment [1] concerns A549.
The test system of experiment [2] is CAKI-1.
The subject of experiment [3] is HCT-116.
The subject of experiment [4] is HOP-92.
For experiment [5], the system named is HT-29.
The test system of experiment [6] is KM12.
The subject of experiment [7] is M14.
Experiment [8] concerns MOLT-4.
Experiment [9] deals with OVCAR-4.
In experiment [10] the test system is SF-539.
Experiment [11] has as its system SK-MEL-28.
Experiment [12] concerns SK-MEL-2.
Experiment [13] has as its system SK-MEL-5.
Experiment [14] has as its system SN12C.
For experiment [15], the system named is UO-31.

In the case of `CCC(=O)OC[n+]1ccc2c(C)c3[nH]c4ccccc4c3c(C)c2c1`, the GI50 in experiment [1] was 0.272 µM (active); in experiment [2] it was 1.11 µM (active); in experiment [3], 0.115 µM (active); in experiment [4] it was 0.107 µM (active); in experiment [5], 0.328 µM (active); in [6], 0.483 µM (active). The GI50 in experiment [7] is 1.08 µM (active); in experiment [8], 0.0358 µM (active); in experiment [9], 0.505 µM (active); in [10], 0.478 µM (active); in experiment [11], 1.38 µM (inactive); in experiment [12] it was 1.03 µM (active). Moreover, the values for the GI50 in experiment [13] and in experiment [14] were 1.25 µM (inactive) and 0.401 µM (active), respectively.

On to `COc1cc(/C=C\c2ccc(O)cc2)cc(OC)c1OC`, for which the GI50 was 6.1 µM (inactive) in experiment [1]; 4.71 µM (inactive) in [2]; 3.96 µM (inactive) in [3]; 0.293 µM (active) in [4]; 15.3 µM (inactive) in experiment [5]; 0.883 µM (active) in experiment [6]. In addition, the GI50 in [7] is 22.2 µM (inactive); in experiment [8], 4.24 µM (inactive); in experiment [9] it was 8.97 µM (inactive); in experiment [10], 2.82 µM (inactive); in experiment [11] it was 1.91 µM (inactive); in [12], 2.64 µM (inactive). The GI50 in experiment [13] was 1.18 µM (inactive); in experiment [14], 4.9 µM (inactive); in experiment [15], 10.4 µM (inactive).

Take `CCN/C(=N\Nc1ccc([N+](=O)[O-])cc1)P(=O)(OC(C)C)OC(C)C`: the GI50 in [1] was > 100 µM (inactive); in experiment [2], > 100 µM (inactive); in experiment [3] it was > 100 µM (inactive); in experiment [4], 66.5 µM (inactive); in experiment [6], > 100 µM (inactive); in experiment [7], > 100 µM (inactive). Further, the GI50 is > 100 µM (inactive) in [8]; 44.2 µM (inactive) in experiment [9]; > 100 µM (inactive) in experiment [10]; 99.8 µM (inactive) in experiment [11]; > 100 µM (inactive) in experiment [12]; 41.1 µM (inactive) in [13]. Further, the GI50 in experiment [14] and in experiment [15] was > 100 µM (inactive) throughout.

With `CC(C)(C)c1cc(C(=O)O)c2c(c1)C(=O)OC2(c1ccccc1)c1ccccc1C(=O)O` (stereo unspecified), the GI50 in [1], in experiment [2], in experiment [3], in experiment [4], in experiment [5] and in experiment [6] was > 100 µM (inactive) in each case. Moreover, the GI50 is > 100 µM (inactive) in [7]; > 100 µM (inactive) in experiment [8]; 78.3 µM (inactive) in experiment [9]; > 100 µM (inactive) in experiment [10]; > 100 µM (inactive) in experiment [11]; > 100 µM (inactive) in experiment [12]. Further, the GI50 in experiment [14] and in experiment [15] was > 100 µM (inactive) in each case.

`O=C(O)c1ccc(C2=Cc3cc(Cl)ccc3OC2)cc1`: the GI50 in experiment [1], in experiment [2], in experiment [3], in experiment [4], in experiment [5] and in [6] was > 100 µM (inactive) in each case. The GI50 in experiment [7], in [8], in experiment [10], in [11], in experiment [12] and in experiment [13] was > 100 µM (inactive) each time. Also, the GI50 in experiment [14] is > 100 µM (inactive); in experiment [15], 90.4 µM (inactive).
